Among the data in BindingDB's records for doi:10.1016/s0960-894x(00)00348-6 (Smithkline Beecham Pharmaceuticals, 2000) are IC50 values, retold here.

The target in this assay is Tyrosyl-tRNA synthetase (Staphylococcus aureus). The experiment in a line: Inhibitory activity of compound against tyrosyl tRNA synthetase from Staphylococcus aureus was determined.

Usually IC50 stands for the midpoint of a concentration-inhibition curve. Read a high IC50 as weaker potency in that assay. Regarding `N[C@@H](Cc1ccc(O)cc1)C(=O)N[C@@H](C(=O)O)[C@H]1[C@H](O)[C@@H](O)[C@@H](O)CN1O` [(R)-[(S)-2-Amino-3-(4-hydroxy-phenyl)-propionylamino]-((2S,3S,4S,5S)-1,3,4,5-tetrahydroxy-piperidin-2-yl)-acetic acid], half-maximal inhibition (IC50) required 21 nM.
